In ChEMBL document CHEMBL1955725, “Structure-guided lead optimization of triazolopyrimidine-ring substituents identifies potent Plasmodium falciparum dihydroorotate dehydrogenase inhibitors with clinical candidate potential” (J Med Chem, 2011):

Assays:
[1] = Oral bioavailability in Sprague-Dawley rat at 21.2 mg/kg; format: ADME, organism-based; conditions: in vivo
[2] = Plasma protein binding in Sprague-Dawley rat at 2 to 21.2 mg/kg, po; format: ADME, organism-based; parameters: dose 2-21.2 mg/kg, route oral; conditions: read-out: PPB (converted)
Plasmodium falciparum [3] = test: Antimalarial activity against Plasmodium falciparum 3D7 0087/N9 infected in human RBC engrafted NOD-SCID IL-2Rgamma-null mouse assessed as reduction in parasitemia administered orally 3 days post infection qd for 4 days measured 24 hrs after final dose by FACS analysis; format: functional; conditions: 3D7 0087/N9, po
Mus musculus [4] = test: AUC (0 to 10 hrs) in human RBC engrafted NOD-SCID IL-2Rgamma-null mouse at 5.7 mg/kg, po; format: ADME, organism-based, Plasma; parameters: time < 10 hr, dose 5.7 mg/kg, route oral; conditions: in vivo
Mus musculus [5] = test: AUC (0 to 10 hrs) in human RBC engrafted NOD-SCID IL-2Rgamma-null mouse infected with Plasmodium falciparum 3D7 0087/N9 at 5.7 mg/kg, po; format: ADME, organism-based, Plasma; parameters: time < 10 hr, dose 5.7 mg/kg, route oral; conditions: in vivo
[6] = Cmax in human RBC engrafted NOD-SCID IL-2Rgamma-null mouse infected with Plasmodium falciparum 3D7 0087/N9 at 5.7 mg/kg, po; format: ADME, organism-based; parameters: dose 5.7 mg/kg, route oral; conditions: in vivo
Liver microsomes = test: Intrinsic clearance in human liver microsomes; format: ADME, Microsome
Liver = test: Intrinsic clearance in mouse liver microsomes; format: ADME, Microsome
Plasmodium falciparum [7] = test: Antimalarial activity against drug-sensitive Plasmodium falciparum D6 by [3H]hypoxanthine incorporation assay in presence of human serum; format: functional, organism-based
Plasmodium falciparum [8] = test: Antimalarial activity against chloroquine and pyrimethamine-resistant Plasmodium falciparum K1 by [3H]hypoxanthine incorporation assay in presence of human serum; format: functional, organism-based
Plasmodium falciparum [9] = test: Antimalarial activity against drug-sensitive Plasmodium falciparum HB3 by [3H]hypoxanthine incorporation assay in presence of human serum; format: functional, organism-based
Plasmodium falciparum [10] = test: Antimalarial activity against chloroquine-resistant Plasmodium falciparum Dd2 by [3H]hypoxanthine incorporation assay in presence of human serum; format: functional, organism-based
Plasmodium falciparum [11] = test: Antimalarial activity against atovoquone-resistant Plasmodium falciparum TM90C2B by [3H]hypoxanthine incorporation assay in presence of human serum; format: functional, organism-based
HepG2 = test: Cytotoxicity against human HepG2 cells; format: cell-based
L1210 = test: Cytotoxicity against mouse L1210 cells; format: cell-based
[12] = Terminal elimination half life in Swiss outbred mouse at 0.4 mg/kg, po; format: ADME, organism-based; parameters: dose 0.4 mg/kg, route oral; conditions: in vivo, read-out: beta t1/2 (converted)
[13] = Terminal elimination half life in Swiss outbred mouse at 2 mg/kg, po; format: ADME, organism-based; parameters: dose 2 mg/kg, route oral; conditions: in vivo, read-out: beta t1/2 (converted)
[14] = Terminal elimination half life in Swiss outbred mouse at 10 mg/kg, po; format: ADME, organism-based; parameters: dose 10 mg/kg, route oral; conditions: in vivo, read-out: beta t1/2 (converted)
[15] = Cmax in Swiss outbred mouse at 0.4 mg/kg, po; format: ADME, organism-based; parameters: dose 0.4 mg/kg, route oral; conditions: in vivo
[16] = Cmax in Swiss outbred mouse at 2 mg/kg, po; format: ADME, organism-based; parameters: dose 2 mg/kg, route oral; conditions: in vivo
[17] = Cmax in Swiss outbred mouse at 10 mg/kg, po; format: ADME, organism-based; parameters: dose 10 mg/kg, route oral; conditions: in vivo
[18] = Cmax in Swiss outbred mouse at 50 mg/kg, po; format: ADME, organism-based; parameters: dose 50 mg/kg, route oral; conditions: in vivo
[19] = AUC (0 to infinity) in Swiss outbred mouse plasma at 0.4 mg/kg, po; format: ADME, organism-based; parameters: time infinity, dose 0.4 mg/kg, route oral
[20] = AUC (0 to infinity) in Swiss outbred mouse plasma at 2 mg/kg, po; format: ADME, organism-based; parameters: time infinity, dose 2 mg/kg, route oral
[21] = AUC (0 to infinity) in Swiss outbred mouse plasma at 10 mg/kg, po; format: ADME, organism-based; parameters: time infinity, dose 10 mg/kg, route oral
Mus musculus [22] = test: Time plasma concentration remained above 1 uM in Swiss outbred mouse plasma at 10 mg/kg, po; format: ADME, organism-based; parameters: dose 10 mg/kg, route oral; conditions: in vivo
Mus musculus [23] = test: Time plasma concentration remained above 1 uM in Swiss outbred mouse plasma at 50 mg/kg, po; format: ADME, organism-based; parameters: dose 50 mg/kg, route oral; conditions: in vivo
Mus musculus [24] = test: AUC (0 to 48 hrs) in Swiss outbred mouse plasma at 50 mg/kg, po; format: ADME, organism-based; parameters: time < 48 hr, dose 50 mg/kg, route oral; conditions: in vivo
[25] = Clearance in Sprague-Dawley rat at 1 mg/kg, iv; format: ADME, organism-based; parameters: dose 1 mg/kg, route intravenous; conditions: in vivo
[26] = Clearance in Sprague-Dawley rat at 4.5 mg/kg, iv; format: ADME, organism-based; parameters: dose 4.5 mg/kg, route intravenous; conditions: in vivo
[27] = Terminal elimination half life in Sprague-Dawley rat at 4.5 mg/kg, iv; format: ADME, organism-based; parameters: dose 4.5 mg/kg, route intravenous; conditions: in vivo, read-out: beta t1/2 (converted)
[28] = Terminal elimination half life in Sprague-Dawley rat at 2 mg/kg, po; format: ADME, organism-based; parameters: dose 2 mg/kg, route oral; conditions: in vivo, read-out: beta t1/2 (converted)
[29] = Terminal elimination half life in Sprague-Dawley rat at 21.2 mg/kg, po; format: ADME, organism-based; parameters: dose 21.2 mg/kg, route oral; conditions: in vivo, read-out: beta t1/2 (converted)
[30] = AUC (0 to infinity) in Sprague-Dawley rat at 2 mg/kg, po; format: ADME, organism-based; parameters: time infinity, dose 2 mg/kg, route oral; conditions: plasma
[31] = AUC (0 to infinity) in Sprague-Dawley rat at 21.2 mg/kg, po; format: ADME, organism-based; parameters: time infinity, dose 21.2 mg/kg, route oral; conditions: plasma
[32] = Inhibition of Plasmodium berghei C-terminal hexa-His tagged DHODH expressed in Escherichia coli by DCIP reduction assay
Plasmodium falciparum [33] = test: Antimalarial activity against Plasmodium falciparum 3D7 by [3H]hypoxanthine incorporation assay in presence of albumax; format: functional, organism-based
[34] = Lipophilicity, log D of the compound at pH 7.4; format: physicochemical; conditions: buffer
[35] = biological target: T1, Dihydroorotate dehydrogenase (Plasmodium falciparum, UniProt Q54A96)
T1 sequence (Q54A96 whole entry): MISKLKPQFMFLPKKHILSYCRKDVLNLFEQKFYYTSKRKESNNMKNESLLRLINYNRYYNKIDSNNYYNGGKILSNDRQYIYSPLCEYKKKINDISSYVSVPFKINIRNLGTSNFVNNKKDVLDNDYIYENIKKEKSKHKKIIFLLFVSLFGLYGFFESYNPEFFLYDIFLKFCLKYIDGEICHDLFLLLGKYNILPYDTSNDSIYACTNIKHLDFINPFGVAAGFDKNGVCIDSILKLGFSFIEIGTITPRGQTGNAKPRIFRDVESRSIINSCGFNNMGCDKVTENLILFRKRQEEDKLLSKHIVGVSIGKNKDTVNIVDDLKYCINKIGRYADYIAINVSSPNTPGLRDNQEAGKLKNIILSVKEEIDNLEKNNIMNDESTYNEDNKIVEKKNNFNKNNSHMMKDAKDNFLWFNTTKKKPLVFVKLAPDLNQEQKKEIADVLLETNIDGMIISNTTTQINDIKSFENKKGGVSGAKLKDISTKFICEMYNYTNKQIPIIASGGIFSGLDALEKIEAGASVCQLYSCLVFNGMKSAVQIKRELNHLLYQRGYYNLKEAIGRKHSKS
Description: Inhibition of Plasmodium falciparum C-terminal hexa-His tagged DHODH expressed in Escherichia coli by DCIP reduction assay

[36] = biological target: Dihydroorotate dehydrogenase (quinone), mitochondrial (Homo sapiens, UniProt Q02127)
Description: Inhibition of human C-terminal hexa-His tagged DHODH expressed in Escherichia coli by DCIP reduction assay

in vivo [37] = conditions: NOD-SCID IL-2Rgamma-null, mouse, po, 5.7 mg/kg
in vivo [38] = conditions: NOD-SCID IL-2Rgamma-null, mouse, po, 5.7 mg/kg; remark: listed apart in the source
in vivo [39] = conditions: Swiss outbred, mouse, po, 2 mg/kg
in vivo [40] = conditions: Swiss outbred, mouse, po, 10 mg/kg
in vivo [41] = conditions: Swiss outbred, mouse, po, 50 mg/kg
in vivo [42] = conditions: Sprague-Dawley, rat, po, 21.2 mg/kg

Dihydroorotate dehydrogenase (quinone), mitochondrial, sequence (Q02127 whole entry): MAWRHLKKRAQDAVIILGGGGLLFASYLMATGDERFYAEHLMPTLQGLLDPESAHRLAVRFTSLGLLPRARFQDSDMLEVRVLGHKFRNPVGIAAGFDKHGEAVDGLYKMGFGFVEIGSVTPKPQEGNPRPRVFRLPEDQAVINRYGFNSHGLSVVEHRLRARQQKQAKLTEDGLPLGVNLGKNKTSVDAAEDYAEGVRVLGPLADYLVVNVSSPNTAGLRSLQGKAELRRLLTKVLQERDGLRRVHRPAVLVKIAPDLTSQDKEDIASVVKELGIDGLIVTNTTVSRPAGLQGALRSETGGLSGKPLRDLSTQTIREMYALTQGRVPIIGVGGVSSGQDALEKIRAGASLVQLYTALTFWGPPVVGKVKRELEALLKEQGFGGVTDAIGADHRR

Cc1cc(Nc2ccc(C(F)(F)F)cc2)n2nc(C(C)(F)F)nc2n1
bioavailability [1]: > 100% | fraction unbound [2]: 0.058 | ED50 (Plasmodium falciparum [3]): 9.6 mg/kg | ED90 (Plasmodium falciparum [3]): 26 mg/kg | AUC (Mus musculus [4]): 2521 µM·min | AUC (Mus musculus [5]): 2740 µM·min | Cmax [6]: 6.3 µM | Intrinsic clearance (Liver microsomes): < 5 µL/min/mg | Intrinsic clearance (Liver): 10.1 µL/min/mg | EC50 (Plasmodium falciparum [7]): 12 nM | EC50 (Plasmodium falciparum [8]): 16 nM | EC50 (Plasmodium falciparum [9]): 7.9 nM | EC50 (Plasmodium falciparum [10]): 13 nM | EC50 (Plasmodium falciparum [11]): 4.6 nM | EC50 (HepG2): > 50000 nM | EC50 (L1210): > 50000 nM | half-life [12]: 2.1 h | half-life [13]: 1.9 h | half-life [14]: 1.6 h | Cmax [15]: 0.2 µM | Cmax [16]: 1.85 µM | Cmax [17]: 9.86 µM | Cmax [18]: 57 µM | AUC(0-inf) [19]: 0.667 µM·h | AUC(0-inf) [20]: 9.48 µM·h | AUC(0-inf) [21]: 70.1 µM·h | Time (Mus musculus [22]): 14 h | Time (Mus musculus [23]): 14 h | AUC (Mus musculus [24]): 14815 µM·min | clearance [25]: 23.2 mL/min/kg | clearance [26]: 12.6 mL/min/kg | half-life [27]: 3.8 h | half-life [28]: 6 h | half-life [29]: 17 h | AUC(0-inf) [30]: 3.88 µM·h | AUC(0-inf) [31]: 342 µM·h | IC50 [32]: 2400 nM | EC50 (Plasmodium falciparum [33]): 6.2 nM | logD [34]: 3.3 | IC50 [35]: 38 nM | IC50 [36]: > 100000 nM | Tmax (in vivo [37]): 2.7 h | Tmax (in vivo [38]): 1.7 h | Tmax (in vivo [39]): 1 h | Tmax (in vivo [40]): 4 h | Tmax (in vivo [41]): 2 h | Tmax (in vivo [42]): 3.25 h
